The supplement of paper PMC4862054

How the values were obtained:
CAL-148 [1] = assay: normalised viability (% of control), CellTiter-Blue; higher = more viable cells (about 100 = DMSO control); details: 10000 nM; incubation time: 72 h
Experimental: (§1)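 DSRT, CellTiter-Blue viability, 72 h incubation. Signal is normalised to DMSO and benzethonium chloride controls. Value is the normalised response at dose 9.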

HDQ-P1 [2] = assay: as above; details: 10000 nM; incubation time: 72 h
Experimental: as §1

MDA-MB-453 [3] = assay: as above; details: 10000 nM; incubation time: 72 h
Experimental: as §1

CAL-51 [4] = assay: as above; details: 10000 nM; incubation time: 72 h
Experimental: as §1

CAL-85-1 [5] = assay: as above; details: 10000 nM; incubation time: 72 h
Experimental: as §1

DU-4475 [6] = assay: as above; details: 10000 nM; incubation time: 72 h
Experimental: as §1

CAL-148 [7] = assay: as above; details: 300 nM; incubation time: 72 h
Experimental: (§2)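 DSRT, CellTiter-Blue viability, 72 h incubation. Signal is normalised to DMSO and benzethonium chloride controls. Value is the normalised response at dose 6.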

HDQ-P1 [8] = assay: as above; details: 300 nM; incubation time: 72 h
Experimental: as §2

MDA-MB-453 [9] = assay: as above; details: 300 nM; incubation time: 72 h
Experimental: as §2

CAL-51 [10] = assay: as above; details: 300 nM; incubation time: 72 h
Experimental: as §2

CAL-85-1 [11] = assay: as above; details: 300 nM; incubation time: 72 h
Experimental: as §2

DU-4475 [12] = assay: as above; details: 300 nM; incubation time: 72 h
Experimental: as §2

MDA-MB-436 [13] = assay: as above; details: 100 nM; incubation time: 72 h
Experimental: (§3)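 DSRT, CellTiter-Blue viability, 72 h incubation. Signal is normalised to DMSO and benzethonium chloride controls. Value is the normalised response at dose 3.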

BT-549 [14] = assay: as above; details: 100 nM; incubation time: 72 h
Experimental: as §3

HCC1599 = assay: as above; details: 100 nM; incubation time: 72 h
Experimental: as §3

HCC1143 = assay: as above; details: 100 nM; incubation time: 72 h
Experimental: as §3

CAL-148 [15] = assay: as above; details: 10 nM; incubation time: 72 h
Experimental: as §3

SK-BR-3 [16] = assay: as above; details: 100 nM; incubation time: 72 h
Experimental: as §3

HDQ-P1 [17] = assay: as above; details: 10 nM; incubation time: 72 h
Experimental: as §3

MDA-MB-453 [18] = assay: as above; details: 10 nM; incubation time: 72 h
Experimental: as §3

BT-474 [19] = assay: as above; details: 100 nM; incubation time: 72 h
Experimental: as §3

MDA-MB-436 [20] = details: 72 h
How it was run: (§4)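 Breast cancer cell lines (20 µl suspension) were seeded into 384-well plates holding compound at 5 concentrations in 10-fold steps over a compound-specific 10,000-fold range, then incubated 72 h. Cell death was read first by CellTox Green fluorescence (485/520 nm), then viability by CellTiter-Glo luminescence after 10 min at room temperature. Each plate was normalised to 0.1 % DMSO and a positive kill control. EC50 was fitted from the dose-response curves and censored at the top concentration.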

Hs578T = details: 72 h
How it was run: as §4

MCF-10A = details: 72 h
How it was run: as §4

HCC1937 = details: 72 h
How it was run: as §4

BT-549 [21] = details: 72 h
How it was run: as §4

CAL-120 = details: 72 h
How it was run: as §4

MDA-MB-231 = details: 72 h
How it was run: as §4

MDA-MB-468 = details: 72 h
How it was run: as §4

SK-BR-3 [22] = details: 72 h
How it was run: as §4

MDA-MB-453 [23] = details: 72 h
How it was run: as §4

BT-474 [24] = details: 72 h
How it was run: as §4

CAL-51 [25] = details: 72 h
How it was run: as §4

CAL-85-1 [26] = details: 72 h
How it was run: as §4

MDA-MB-453 [27] = details: 72 h; remark: listed apart in the source
How it was run: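 Each 384-well plate was pre-loaded with compound dissolved in 5 µl medium, received breast cancer cells in 20 µl suspension, and was incubated 72 h. A 2.5 µl addition of CellTiter-Blue for 2 h at 37 °C was followed by a fluorescence read at 560/590 nm. Data were normalised per plate to vehicle and a positive kill control and checked by Z'-factor. EC50 was fitted from the percent-inhibition dose-response curve, censored at the highest concentration, excluding rows with a drug sensitivity score of zero.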

Compound | normalised viability (CAL-148 [1]) | normalised viability (HDQ-P1 [2]) | normalised viability (MDA-MB-453 [3]) | normalised viability (CAL-51 [4]) | normalised viability (CAL-85-1 [5]) | normalised viability (DU-4475 [6]) | normalised viability (CAL-148 [7]) | normalised viability (HDQ-P1 [8]) | normalised viability (MDA-MB-453 [9]) | normalised viability (CAL-51 [10]) | normalised viability (CAL-85-1 [11]) | normalised viability (DU-4475 [12]) | normalised viability (MDA-MB-436 [13]) | normalised viability (BT-549 [14]) | normalised viability (HCC1599) | normalised viability (HCC1143) | normalised viability (CAL-148 [15]) | normalised viability (SK-BR-3 [16]) | normalised viability (HDQ-P1 [17]) | normalised viability (MDA-MB-453 [18]) | normalised viability (BT-474 [19]) | EC50, CellTiter-Glo (MDA-MB-436 [20]) | EC50, CellTiter-Glo (Hs578T) | EC50, CellTiter-Glo (MCF-10A) | EC50, CellTiter-Glo (HCC1937) | EC50, CellTiter-Glo (BT-549 [21]) | EC50, CellTiter-Glo (CAL-120) | EC50, CellTiter-Glo (MDA-MB-231) | EC50, CellTiter-Glo (MDA-MB-468) | EC50, CellTiter-Glo (SK-BR-3 [22]) | EC50, CellTiter-Glo (MDA-MB-453 [23]) | EC50, CellTiter-Glo (BT-474 [24]) | EC50, CellTiter-Glo (CAL-51 [25]) | EC50, CellTiter-Glo (CAL-85-1 [26]) | EC50, CellTiter-Blue viability (MDA-MB-453 [27])
COc1ccc(-c2ccc3c(N4CCOC[C@@H]4C)nc(N4CCOC[C@@H]4C)nc3n2)cc1CO [AZD8055] | 3.64% | 22.7% | 12.2% | 6.13% | 18.8% | 8.6% | 10.4% | 26.9% | 15.7% | 16.9% | 28.8% | 29.8% | 70.7% | 44.3% | 65.9% | 55.8% | 80.9% | 23.6% | 76.8% | 80.3% | 52.2% | 11.6 nM | 57.5 nM | 61 nM | 100 nM | 30.8 nM | 37.5 nM | 73.8 nM | 43.3 nM | 7.23 nM | 24.6 nM | 121 nM | 45.4 nM | 31.8 nM | 17.1 nM
CN(C)CCN1C(=O)c2cccc3cc(N)cc(c23)C1=O [Amonafide] | 8.2% | 45.5% | 20.4% | 6.12% | 27.6% | 1.19% | 89.8% | 67.5% | 92.5% | 109% | 91.7% | 92.3% | 104% | 94.9% | 102% | 87% | 85.2% | 76% | 105% | 94.1% | 119% | 7370 nM | 1920 nM | 8420 nM | > 10000 nM | 3270 nM | 2700 nM | 2840 nM | 7960 nM | 5430 nM |  | 1660 nM | 5570 nM | 9240 nM | 4230 nM
